A word on the IC50: it is the concentration needed to halve the response being measured. High values mean lower potency, low ones higher potency.

In test [1] the test system is MCF7 WT Brk expressing cells. As to the kind of experiment: PI staining and FACS analysis, % G1 content. Conditions: PD0332991 up to 100 nM. It is filed as cell-based, human. How it is done:
Immunoprecipitation with IgG served as a negative control (FIG. 6C). DNA with Hoechst stain is in blue and is merged with red and green staining (FIG. 6D). (FIG. 6E) Cdk4 was immunoprecipitated from the lysates and recombinant Rb was added to perform an in vitro kinase assay in the presence of ATP Immunoblot analysis was performed to probe for Rb, Ser780 pRb and cdk4 Immunoprecipitation with IgG served as a negative control. (FIG. 6F) Cells were treated with different concentrations of PD0332291 or DMSO as a control at Day 2. Total cell numbers were analyzed by counting 24 and 48 hours post treatment to determine IC50 values. (FIG. 6G) Cells were treated with different concentration of PD032291 or DMSO and analyzed by PI staining and FACS analysis. % G1 content is plotted.
The PCR fragments were ligated to the T7pGEMEX human His-p27 or T7pGEMEX human Flag-p27 plasmid for expression in E. coli. Mutants Y74F, Y88F, and Y88/89F were previously described (12). Flag-tagged p27 mutants were purified by Flag-immunoprecipitation with Flag antibody (M-2, Sigma F-18C9) and eluted with Flag peptide (Sigma F-4799) according to manufacturer's protocol. His-tagged p27 mutants were purified by FPLC via his-trap affinity chromatography (His-Trap HP, GE Healthcare 71-5247-01). The affinity column was stripped according to manufacturer's protocol, then washed with 5 column volumes of 100 mM CoCl2. […]
(Flow cytometry measures light scatter and fluorescence of single cells or particles in a stream.)

The next test has as its system HCC1954 (ER/PR-, Her2+). As to the kind of experiment: Palbociclib sensitivity of breast cancer line. In kind it is cell-based. The following applies: Homo sapiens; HCC1954, non-responder.
The next test deals with MCF7-ALT cells. As to the kind of experiment: Long-term proliferation arrest at IC100 (FIG. 15A). In kind it is cell-based, human. The following applies: IC100 Palbociclib, doxycycline induced ALT, replenished every two days. How it is done:
FIGS. 15A-15C: ALT and PD treatment increases senescence, a clinical goal. FIG. 15A: MCF7-ALT cells were treated with IC100 concentration of Palbociclib (PD) or doxycycline to induce ALT. Drugs were replenished every two days and proliferation was determined by cell counting as indicated. Proliferation rates were standardized to the rate of proliferation seen in DMSO treated cells (control). PD treated cells were arrested for 10 days, before escape (proliferation) was detected. ALT expressing cells were arrested for 18 days before escape (proliferation) was detected. ALT expressing and PD treated cells were arrested for 30 days, with no escape detected. […] Proliferation was assessed by counting. […] Viability was measured by trypan blue staining and the ALT expressing, PD treated cells that weren't growing were viable. […]
MCF7-ALT cells were treated with a IC100 concentration of Palbociclib (PD) or doxycycline to induce ALT. Drugs were replenished every two days and proliferation was determined by cell counting as indicated. […] PD treated cells were arrested for 10 days, before escape (proliferation) was detected. ALT expressing cells were arrested for 18 days before escape (proliferation) was detected. ALT expressing and PD treated cells were arrested for 30 days, with no escape detected. […] Proliferation was assessed by counting. […]

Turning to `CC(=O)c1c(C)c2cnc(Nc3ccc(N4CCNCC4)cn3)nc2n(C2CCCC2)c1=O` [PD0332991], in test [1], the G1 content result is “approximately 55%”. The IC50 with HCC1954 (ER/PR-, Her2+) was > 1 µM. The “time arrested before escape (proliferation)” value with MCF7-ALT cells is 10 days.

The values are drawn from patent publication US11260100B2, “Compositions targeting the interaction domain between p27Kip1 and Brk and methods of use thereof to inhibit p27 Y phosphorylation and cdk4 activity” (The Research Foundation for the State University of New York, priority 2014, dated 2022).
